According to paper PMC9820444, “Design and Synthesis of Acridine-Triazole and Acridine-Thiadiazole Derivatives and Their Inhibitory Effect against Cancer Cells” (International Journal of Molecular Sciences, 2022):
Read-outs that look alike come from different tables or passages of the source. Marks after values point to notes of the source that are not given here.

Experiments:
[1] = system: hepatocellular carcinoma bel-7404 (BEL-7404); experiment: MTT antiproliferative assay, BEL-7404; assay type: cell-based, human; conditions: Homo sapiens, read-out: Effect against cell viability (IC50), BEL-7404
[2] = system: subintestinal veins (SIVs) in zebrafish embryos; experiment: Zebrafish angiogenesis assay (subintestinal veins, NBT/BCIP staining); assay type: in vivo; conditions: zebrafish embryos, 1 mg/mL, compared with blank control group
Source text: Currently, the zebrafish has emerged as a valuable model organism to substitute traditional models for studying angiogenesis inhibitors. The genes of zebrafish show 70–80% similarity to humans, and the vascular structure of zebrafish has high similarity to that of other vertebrates. Therefore, the subintestinal veins (SIVs) in the zebrafish embryos are used as evaluation indicators for anti-angiogenesis inhibitors. In this study, NBT/BCIP vascular staining was used to observe the angiogenesis effect of representative drugs (4h, 4f, 5d, 5h, 6g and 6h) in a zebrafish model. […] Compared with the blank control group, the area of the meshed pattern vessel and the number of vascular branches in the network decreased after the administration of compounds 4h, 5d, 5h and 6h.
The 24 hpf zebrafish embryos were dechorionated with a 1 gL^−1 pronase treatment and maintained in distilled water in 12-well cell culture plates (each well contained 20 embryos). A negative control group containing zebrafish embryos in distilled water and a vehicle treatment group that was treated with 2% dimethyl sulfoxide (DMSO) were prepared. The anti-angiogenic compounds were diluted to 1 mg/mL. After incubating at 28 °C for […], the embryos were immersed in 4% paraformaldehyde and dehydrated by gradient ethanol. Subsequently, the embryos were balanced in NTMT buffer (5 M NaCl + 1 M Tris [pH 9.0–9.5] + 1 M MgCl2+ 10% Tween), and nitrotetrazolium blue chloride (NBT) and p-toluidine salt (BCIP) staining were performed. To evaluate the effect of compounds on the angiogenesis of zebrafish embryos, the growth of embryonic sub-intestinal veins (SIVs) at 72 hpf was observed using an IX71 Olympus microscope (Hamburger, Germany). The length of the SIVs was calculated using the image J 1.8.0 software (Bethesda, MD, USA).

[3] = system: human gastric cancer cells-803 (MGC-803); experiment: MTT antiproliferative assay, MGC-803; assay type: cell-based; conditions: Homo sapiens, MGC-803, MTT, read-out: Effect against cell viability (IC50), MGC-803
zebrafish embryos = zebrafish embryos 72 hpf

## COc1ccc(-c2nnc(N=C3c4ccccc4NC4C=CC(C)=CC34)s2)cc1 (stereo not drawn) [6h, 7-methyl-N-(5-(4-methoxyphenyl)-1,3,4-thiadiazol-2-yl)-10,10a-dihydroacridin-9(8aH)-imine]
[1]
  IC50: 20.2 ± 1.59 µM
[2]
  area of the meshed pattern vessel and number of vascular branches in the network: decreased
[3]
  IC50: 6.85 ± 0.84 µM
Zebrafish embryos; 1 mg/mL
  MAR (malformation rate): 35% ^b
  MOR (mortality rate): 0%
Zebrafish embryos; 1.5 mg/mL
  MAR (malformation rate): 80% ^b
  MOR (mortality rate): 0%
Zebrafish embryos; 2 mg/mL
  MAR (malformation rate): 65% ^b
  MOR (mortality rate): 15% ^b
